As usually defined, the IC50 is the concentration at which inhibition is half-maximal.

One assay concerns LPA-induced skin vascular leakage in Balb/c mice. The assay can be described thus: mouse LPA-induced skin vascular leakage model. It is filed as in vivo. Conditions: oral administration of 30 mg/kg to mice; extravasated Evans blue per skin disc. How it is done: Assessment of In Vivo Potency
The in vivo potency of the compounds of Formula (I) can be determined using a mouse LPA-induced skin vascular leakage model. Female Balb/c mice are treated with either vehicle or test compound (e.g. at 30 mg/kg or 100 mg/kg p.o.) for at least 1 h prior to administration of the albumin marker Evans blue (50 mg/kg, i.v., 0.9% NaCl) and subsequent challenge with LPA (5 μg, i.d.). After 30 minutes, mice are sacrificed by CO2 inhalation. Discs of skin from the injection sites are removed, digested in formamide (500 μl, 37° C., 24 hrs) and the content of Evans blue quantified by colorimetric assay. Results are expressed as extravasated Evans blue per skin disc (μg/disc).
As an example, selected compound of the present invention, Ex 21-2, is able to effectively reduce LPA-induced vascular leakage after oral administration of 30 mg/kg to mice as compared to a group of animals treated with vehicle only. Reduction of vascular leakage compared to vehicle group was >60%.
Consider `COc1cc(Cl)ncc1NC(=O)C1(c2ccccc2C(C)C)CN(S(N)(=O)=O)C1` [Example 21-2, N-(6-chloro-4-methoxypyridin-3-yl)-3-(2-isopropylphenyl)-1-sulfamoylazetidine-3-carboxamide], for which the “Reduction of vascular leakage compared to vehicle group” value is given as greater than 60%.

For a further assay, the target named is T1, human LPA1 receptor (Homo sapiens, UniProt Q92633).
T1 construct: TEV protease site; Gal4-VP16 transcription factor; host or cells: Tango EDG2-bla U2OS cells
T1 sequence (Q92633 whole entry, the tested form may be a part): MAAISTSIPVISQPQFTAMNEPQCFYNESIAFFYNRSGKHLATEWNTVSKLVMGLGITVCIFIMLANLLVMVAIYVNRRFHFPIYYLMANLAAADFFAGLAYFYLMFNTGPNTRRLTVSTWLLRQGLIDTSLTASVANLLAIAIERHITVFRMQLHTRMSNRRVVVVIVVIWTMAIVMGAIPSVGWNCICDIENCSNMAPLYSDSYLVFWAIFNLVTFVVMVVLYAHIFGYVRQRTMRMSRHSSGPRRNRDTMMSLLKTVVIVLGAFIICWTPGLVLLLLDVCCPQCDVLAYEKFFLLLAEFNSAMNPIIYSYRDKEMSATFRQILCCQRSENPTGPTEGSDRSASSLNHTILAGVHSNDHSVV
The assay can be described thus: Beta-arrestin recruitment assay to determine IC50 values for human LPAR1. Type of assay: cell-based. Conditions: Tango EDG2-bla U2OS cells, antagonist assay, LPA 18:1 500 nM final. Put shortly:
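Tango EDG2-bla U2OS cells were preincubated 30 min at 37 °C with compound. They were then stimulated with 500 nM (final) LPA 18:1 for 16 h. β-Lactamase reporter read by LiveBLAzer FRET substrate (2 h) as the 460/530 nm ratio; IC50 from 4-parameter logistic fit.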
Background: Arrestin recruitment assays detect the binding of arrestin to an activated receptor.
In the case of `COc1cc(Cl)ncc1NC(=O)C1(c2ccccc2C(C)C)CN(S(N)(=O)=O)C1` [Example 21-2, N-(6-chloro-4-methoxypyridin-3-yl)-3-(2-isopropylphenyl)-1-sulfamoylazetidine-3-carboxamide], the IC50 came out at 3 nM.

As for `COc1cc(Cl)ncc1NC(=O)C1(c2ccccc2C(C)C)CN(c2ncc(F)cn2)C1` [Example 24-9, N-(6-chloro-4-methoxypyridin-3-yl)-1-(5-fluoropyrimidin-2-yl)-3-(2-isopropylphenyl)azetidine-3-carboxamide], the half-maximal inhibitory concentration (IC50) came to 8 nM.

`COc1cc(Cl)ncc1NC(=O)C1(c2ccccc2C(C)C)CN(c2ncncc2F)C1` [Example 24-10, N-(6-chloro-4-methoxypyridin-3-yl)-1-(5-fluoropyrimidin-4-yl)-3-(2-isopropylphenyl)azetidine-3-carboxamide]: the IC50 stood at 2 nM.

Turning to `COc1cc(Cl)ncc1NC(=O)C1(c2ccccc2C(C)C)CN(c2ccncn2)C1` [Example 24-11, N-(6-chloro-4-methoxypyridin-3-yl)-3-(2-isopropylphenyl)-1-(pyrimidin-4-yl)azetidine-3-carboxamide], the IC50 turned out to be 5 nM.

`COc1cc(Cl)ncc1NC(=O)C1(c2ccccc2C(C)C)CN(c2ccnc(C)n2)C1` [Example 24-12, N-(6-chloro-4-methoxypyridin-3-yl)-3-(2-isopropylphenyl)-1-(2-methylpyrimidin-4-yl)azetidine-3-carboxamide]: the IC50 amounted to 7 nM.

Turning to `COc1cc(Cl)ncc1NC(=O)C1(c2ccccc2C(C)C)CN(c2ncncc2C)C1` [Example 24-13, N-(6-chloro-4-methoxypyridin-3-yl)-3-(2-isopropylphenyl)-1-(5-methylpyrimidin-4-yl)azetidine-3-carboxamide], the IC50 is 5 nM.

Consider `COc1cc(Cl)ncc1NC(=O)C1(c2ccccc2C(C)C)CN(c2cc(C)ncn2)C1` [Example 24-14, N-(6-chloro-4-methoxypyridin-3-yl)-3-(2-isopropylphenyl)-1-(6-methylpyrimidin-4-yl)azetidine-3-carboxamide], for which the IC50 was found to be 8 nM.

Take `COc1cc(Cl)ncc1NC(=O)C1(c2ccccc2C(C)C)CN(c2cc(Cl)nc(C)n2)C1` [Example 24-15, 1-(6-chloro-2-methylpyrimidin-4-yl)-N-(6-chloro-4-methoxypyridin-3-yl)-3-(2-isopropylphenyl)azetidine-3-carboxamide]: the IC50 amounted to 29 nM.

With `COc1cc(Cl)ncc1NC(=O)C1(c2ccccc2C(C)C)CN(c2nc(C)ncc2F)C1` [Example 24-16, N-(6-chloro-4-methoxypyridin-3-yl)-1-(5-fluoro-2-methylpyrimidin-4-yl)-3-(2-isopropylphenyl)azetidine-3-carboxamide], the IC50 is 13 nM.

Turning to `COc1cc(Cl)ncc1NC(=O)C1(c2ccccc2C(C)C)CCN(c2ncncc2F)CC1` [Example 24-17, N-(6-chloro-4-methoxypyridin-3-yl)-1-(5-fluoropyrimidin-4-yl)-4-(2-isopropylphenyl)piperidine-4-carboxamide], the IC50 is 3 nM.

For `COc1cc(Cl)ncc1NC(=O)C1(c2ccccc2C(C)C)CCN(c2nc(C)ncc2F)CC1` [Example 24-18, N-(6-chloro-4-methoxypyridin-3-yl)-1-(5-fluoro-2-methylpyrimidin-4-yl)-4-(2-isopropylphenyl)piperidine-4-carboxamide], the half-maximal inhibitory concentration (IC50) was found to be 5 nM.

As to `COC(=O)c1cnc(N2CC(C(=O)Nc3cnc(Cl)cc3OC)(c3ccccc3C(C)C)C2)cn1` [Example 24-19, methyl 5-(3-((6-chloro-4-methoxypyridin-3-yl)carbamoyl)-3-(2-isopropylphenyl)azetidin-1-yl)pyrazine-2-carboxylate], the IC50 was found to be 9 nM.

With `COc1cc(Cl)ncc1NC(=O)C1(c2ccccc2C(C)C)CN(c2cnc(C(=O)O)cn2)C1` [Example 24-20, 5-(3-((6-chloro-4-methoxypyridin-3-yl)carbamoyl)-3-(2-isopropylphenyl)azetidin-1-yl)pyrazine-2-carboxylic acid], the IC50 turned out to be 145 nM.

Take `COC(=O)c1ccc(N2CC(C(=O)Nc3cnc(Cl)cc3OC)(c3ccccc3C(C)C)C2)nc1` [Example 24-21, methyl 6-(3-((6-chloro-4-methoxypyridin-3-yl)carbamoyl)-3-(2-isopropylphenyl)azetidin-1-yl)nicotinate]: the half-maximal inhibitory concentration (IC50) is 12 nM.

Take `COC(=O)c1cnc(N2CC(C(=O)Nc3cnc(Cl)cc3OC)(c3ccccc3C(C)C)C2)nc1` [Example 24-22, methyl 2-(3-((6-chloro-4-methoxypyridin-3-yl)carbamoyl)-3-(2-isopropylphenyl)azetidin-1-yl)pyrimidine-5-carboxylate]: the IC50 was determined as 22 nM.

For the compound `COc1cc(Cl)ncc1NC(=O)C1(c2ccccc2C(C)C)CN(c2ncc(C(=O)O)cn2)C1` [Example 24-23, 2-(3-((6-chloro-4-methoxypyridin-3-yl)carbamoyl)-3-(2-isopropylphenyl)azetidin-1-yl)pyrimidine-5-carboxylic acid], the half-maximal inhibitory concentration (IC50) turned out to be 3150 nM.

Regarding `COC(=O)c1ccc(N2CC(C(=O)Nc3cnc(Cl)cc3OC)(c3ccccc3C(C)C)C2)nn1` [Example 24-24, methyl 6-(3-((6-chloro-4-methoxypyridin-3-yl)carbamoyl)-3-(2-isopropylphenyl)azetidin-1-yl)pyridazine-3-carboxylate], the half-maximal inhibitory concentration (IC50) came out at 24 nM.

In the case of `CCOC(=O)c1coc(N2CC(C(=O)Nc3cnc(Cl)cc3OC)(c3ccccc3C(C)C)C2)n1` [Example 24-25, ethyl 2-(3-((6-chloro-4-methoxypyridin-3-yl)carbamoyl)-3-(2-isopropylphenyl)azetidin-1-yl)oxazole-4-carboxylate], the IC50 came to 15 nM.

`COc1cc(Cl)ncc1NC(=O)C1(c2ccccc2C(C)C)CN(c2nc(C(=O)O)co2)C1` [Example 24-26, 2-(3-((6-chloro-4-methoxypyridin-3-yl)carbamoyl)-3-(2-isopropylphenyl)azetidin-1-yl)oxazole-4-carboxylic acid]: the IC50 stood at 91 nM.

For `COc1cc(Cl)ncc1NC(=O)C1(c2ccccc2C(C)C)CN(c2nnn[nH]2)C1` [Example 25, N-(6-chloro-4-methoxypyridin-3-yl)-3-(2-isopropylphenyl)-1-(1H-tetrazol-5-yl)azetidine-3-carboxamide], the IC50 was 270 nM.

With `COc1cc(Cl)ncc1NC(=O)C1(c2ccccc2C(C)C)CN(C2=NC(=O)CO2)C1` [Example 26, N-(6-chloro-4-methoxypyridin-3-yl)-3-(2-isopropylphenyl)-1-(4-oxo-4,5-dihydrooxazol-2-yl)azetidine-3-carboxamide], the IC50 is 12 nM.

Turning to `COc1cc(Cl)ncc1NC(=O)C1(c2ccccc2C(C)C)CN(c2c(O)c(=O)c2=O)C1` [Example 27, N-(6-chloro-4-methoxypyridin-3-yl)-1-(2-hydroxy-3,4-dioxocyclobut-1-en-1-yl)-3-(2-isopropylphenyl)azetidine-3-carboxamide], the IC50 is 55 nM.

The record behind these values is patent US12479820B2, “Pyridin-3-yl derivatives” (Idorsia Pharmaceuticals Ltd, priority 2019, dated 2025).
